According to publication PMC5991599, “Anti‐tumor efficacy of a novel CLK inhibitor via targeting RNA splicing and MYC‐dependent vulnerability” (EMBO Molecular Medicine, 2018):
pIC50: −log10 of the molar value. Where two headings read alike, the source gives them in different places.

What was measured:
CLK1 = CLK1 (Homo sapiens, UniProt P49759); design: method as in Funnell et al, 2017; settings: enzymatic assay; ref Funnell et al, 2017; read-out: IC50 (nmol/L) CLK1; cited from earlier work
DYRK1B = DYRK1B (Homo sapiens, UniProt Q9Y463); design: method as in Funnell et al, 2017; settings: enzymatic assay; ref Funnell et al, 2017; read-out: IC50 (nmol/L) DYRK1B; cited from earlier work
[1] = system: MYC-inducible SK-MEL-28 cells; experiment: Growth inhibition in MYC-inducible SK-MEL-28 cells; assay type: cell-based; settings: Homo sapiens, read-out: IC50 (nmol/L) (95% CI)
Method: To obtain an MYC‐inducible cell line, SK‐MEL‐28 cells were engineered via stable lentiviral transduction to express an empty pTRIPZ vector (Open Biosystems/GE Healthcare Dharmacon Inc., Lafayette, CO, USA) or a Tet‐inducible promoter‐driven MYC gene. Infected cells were selected with geneticin for 4 days, left to recover for 24 h, and treated with 0.5 μg/ml Dox (Sigma‐Aldrich, St. Louis, MO, USA). U2OS cells were similarly engineered to express an empty pBABE vector (Cell Biolabs, Inc., San Diego, CA, USA) or a MYC‐estrogen receptor (MYC‐ER) transgene via 3 days of puromycin selection followed by treatment with 0.5 μmol/l tamoxifen (Sigma‐Aldrich).
Silencer Select Pre-designed siRNAs purchased from Ambion (Thermo Fisher
Scientific) were used. The siRNA ID# and sequence are shown below: […]
Cell proliferation assay, Caspase-3/7 assay
Cell proliferation was measured using CellTiter-Glo luminescent cell viability
assay (Promega, Fitchburg, WI, U.S.A.). Caspase-3/7 activity was measured using
Caspase-Glo 3/7 Assay Systems (Promega). Luminescence of each well was measured
using ARVO Light (PerkinElmer Inc., Waltham, MA, U.S.A.). The IC50 value and 95%
confidential intervals were estimated using GraphPad Prism 5 (GraphPad Software,
Inc., La Jolla, CA, U.S.A.). […]

HCT116 cells = experiment: Modulation of the 125 T-025-dependent skipped exons (RNA-Seq, MISO); assay type: cell-based; settings: |ΔPSI| > 0.4, T3 AS events from Funnell et al, 2017
Method: The RNA‐Seq was performed at Takara Bio Inc. (Shiga, Japan) or Macrogen, Inc. (Seoul, South Korea) by using HiSeq2000 or HiSeq4000 (Illumina Inc., San Diego, CA, USA). Splicing bioinformatics analysis using MISO and pathway analysis using Cytoscape (Shannon et al, 2003) were performed as previously described (Funnell et al, 2017). Briefly, the BAM alignment files produced by TopHat and the files for AS events (for hg19) provided by MISO were used as inputs. […] For clustering, we used 1,320 splicing events with ΔPSI > 0.4, the BF > 20, and SD of PSI for each splicing event > 0.2. Hierarchical clustering was performed using heatmap3 from the R package.

DYRK1A = biological target: T1, DYRK1A (Homo sapiens, UniProt Q13627); design: method as in Funnell et al, 2017; settings: enzymatic assay; ref Funnell et al, 2017; read-out: IC50 (nmol/L) DYRK1A; cited from earlier work
T1 construct: purchased DiscoverX Corporation (Fremont, CA, USA)

CLK1, sequence (P49759 whole entry): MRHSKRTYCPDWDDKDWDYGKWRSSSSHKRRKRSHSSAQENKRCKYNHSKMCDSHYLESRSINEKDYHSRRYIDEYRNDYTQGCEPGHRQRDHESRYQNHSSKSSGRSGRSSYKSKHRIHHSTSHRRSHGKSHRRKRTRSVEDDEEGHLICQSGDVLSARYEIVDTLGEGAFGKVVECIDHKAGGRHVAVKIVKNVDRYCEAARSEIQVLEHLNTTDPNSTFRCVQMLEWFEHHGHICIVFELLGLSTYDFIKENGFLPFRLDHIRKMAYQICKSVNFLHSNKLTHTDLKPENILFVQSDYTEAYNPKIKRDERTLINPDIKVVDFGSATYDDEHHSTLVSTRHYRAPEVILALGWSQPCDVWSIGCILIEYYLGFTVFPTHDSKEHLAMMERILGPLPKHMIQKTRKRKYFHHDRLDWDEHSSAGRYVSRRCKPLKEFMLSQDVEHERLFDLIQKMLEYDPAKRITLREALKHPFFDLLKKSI
DYRK1B, sequence (Q9Y463 whole entry): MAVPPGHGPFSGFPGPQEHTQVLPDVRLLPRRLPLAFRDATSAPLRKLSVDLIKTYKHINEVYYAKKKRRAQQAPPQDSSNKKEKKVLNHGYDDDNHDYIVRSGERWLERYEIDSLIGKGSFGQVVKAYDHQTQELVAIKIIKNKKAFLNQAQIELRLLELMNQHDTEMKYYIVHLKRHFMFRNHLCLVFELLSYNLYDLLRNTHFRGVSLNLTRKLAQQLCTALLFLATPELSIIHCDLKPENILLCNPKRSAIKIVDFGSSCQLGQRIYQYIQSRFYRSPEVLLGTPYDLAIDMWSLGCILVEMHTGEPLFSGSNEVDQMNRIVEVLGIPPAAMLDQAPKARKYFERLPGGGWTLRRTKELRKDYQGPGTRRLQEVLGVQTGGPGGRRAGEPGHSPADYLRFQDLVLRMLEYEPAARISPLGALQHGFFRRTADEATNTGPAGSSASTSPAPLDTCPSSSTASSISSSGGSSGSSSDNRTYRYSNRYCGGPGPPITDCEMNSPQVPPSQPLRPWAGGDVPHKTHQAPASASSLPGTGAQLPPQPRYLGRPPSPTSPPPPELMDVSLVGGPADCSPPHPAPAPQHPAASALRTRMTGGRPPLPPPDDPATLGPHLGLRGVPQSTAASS

pIC50 ([1]; SK-MEL-28, 72 h, myc - Dox): 6.33 | pIC50 ([1]; SK-MEL-28, 72 h, vector - Dox): 6.34 | pIC50 ([1]; SK-MEL-28, myc + Dox (48 h pretreatment), 72 h): 6.53 | pIC50 ([1]; SK-MEL-28, vector + Dox (48 h pretreatment), 72 h): 6.33
SMILES: CN1CCN(C(=O)C(C)(C)c2ccc(C(=O)Nc3cn4cc(-c5ccncc5)ccc4n3)cc2)CC1 [T3]
pIC50 (CLK1): 9.20 | pIC50 (DYRK1B): 6.59 | share of the 125 T-025-dependent SEs also changed (HCT116 cells; T3 at 500 nmol/l): 58.4% | share of the 125 T-025-dependent SEs also changed (HCT116 cells; T3 at 1,000 nmol/l): 77.6% | pIC50 (DYRK1A): 6.64
